In patent publication US20060069038A1, “Irreversible caspase-3 inhibitors as active site probes” (priority 2003, published 2006):
Like-named read-outs stand apart in the source and are kept apart here.

Target: T1, caspase-3 (Rattus norvegicus, UniProt P55213)
T1 construct: endogenous in cells; host or cells: primary rat thymocytes (Sprague-Dawley), spontaneous apoptosis in culture
T1 sequence (P55213 29-175 limits assumed): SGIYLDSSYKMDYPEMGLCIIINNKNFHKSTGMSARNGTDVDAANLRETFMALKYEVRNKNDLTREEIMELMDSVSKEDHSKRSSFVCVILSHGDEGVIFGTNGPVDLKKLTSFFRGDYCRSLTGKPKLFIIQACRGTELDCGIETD
T1 sequence (P55213 176-277 limits assumed): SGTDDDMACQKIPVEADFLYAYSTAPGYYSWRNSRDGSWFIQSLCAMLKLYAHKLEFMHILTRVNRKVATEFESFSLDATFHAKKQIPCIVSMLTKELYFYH
Experiment: Caspase active site occupancy by [125I]-M808 labeling in whole rat thymocytes
Type: cell-based
Protocol: FIG. 5. Determination of caspase active site occupancy by M867 in cultured rat thymocytes. A-Theoretical calculations for the determination of the percentage of caspase-3 active sites occupied by M867 in whole cells. The total amount of caspase-3 p17 subunit is determined densitometrically by either Western blotting of saturation [^125I]-M808 labeling. Partial labeling of active caspases in whole cells is perforemd (see materials and methods). A graph of the p17 amount against partial [^125I]-M808 labeling signal in the absence of M867 (or other reversible caspase inhibitors) is plotted. The [^125I]-M808 signal expected from the measured p17 amount is estimated form this plot. The actual [^125I]-M808 signal (by partial labeling) in the presence of reversible inhibitor is measured. The ratio of actual [^125I]-M808 signal over expected [^125I]-M808 signal multiplied by 100=the percentage of caspase active sites unoccupied by an inhibitor. The percentage occupancy=100−% free active sites. B-C An actual determination of caspase active site occupancy by M867 in whole rat thymocytes. B-caspase-3 western blot. C-[^125I]-M808 signal from whole rat thymocytes exposed to increasing concentrations of M867. Comparison of M867 caspase inhibition potency (IC50) determined by DNA fragmentation inhibition and [^125I]-M808 labeling is also depicted. […]

Q: For CCCCCN(C)CC(=O)[C@H](CC(=O)O)NC(=O)[C@H](CC)n1cc(C(C)(C)C)nc(NCc2nonc2C)c1=O [Example M867, (3S)-3-({(2S)-2-[5-tert-butyl-3-{[(4-methyl-1,2,5-oxadiazol-3-yl)methyl]amino}-2-oxopyrazin-1(2H)-yl]butanoyl}amino)-5-[methyl(pentyl)amino]-4-oxopentanoic acid], which IC50 (five independent experiments, p=0.03 vs DNA fragmentation IC50, read-out: IC50 determined with M808) is on record?
A: The IC50 was 130 nM.

Q: And the IC50 (whole rat thymocytes, experiment of FIG. 5, read-out: IC50, occupancy of caspase by M867 ([125I]-M808 labeling))?
A: The IC50 was 140 nM.
